Tests used:
ICR mice = assay: Acute toxicity test; assay type: in vivo; design: Lethality: unit not given here; details: for Lethality: 10080 min
Procedure, shortened: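 Male and female 7-week-old ICR mice, 6 per group, dosed intraperitoneally. Signs and survival followed for 7 days, with autopsy of animals that died.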

[1] = test system: murine leukemia L1210 cells; assay: Growth inhibition test on cultured murine leukemia L1210 cells; assay type: cell-based; details: 48 hours, 37° C., Trypan blue viability
Procedure, shortened: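 L1210 cells (1×10^5) exposed to graded compound concentrations in RPMI 1640 with 10% fetal calf serum, 37° C, 5% CO2, 48 h. Viability by 0.17% Trypan blue staining, relative to untreated control cells.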

[2] = Test for water solubility; assay type: physicochemical; details: 20° C.
Text: 3. Test for water solubility
A standard plot of UV absorbance(220 nm) vs. concentration was made; and employed to determine water-solubility.
The mixture was then passed through a 0.45 micron disposable membrane filter before dilution and UV measurement.

murine leukemia L1210 = assay: Antitumor activity test on murine leukemia L1210 in vivo; design: species or system male BDF1 mice; details: days 1, 5, 9
Procedure, shortened: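 Intraperitoneal L1210 model: 1×10^6 cells inoculated i.p. into 6-week-old male BDF1 mice (21±3 g) on day 0, seven per group. Compounds in 0.5% CMC given i.p. on days 1, 5 and 9; vehicle-only controls. T/C % from mean survival time of treated over control.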

Test for nephrotoxicity = assay type: in vivo, male ICR mice; details: 18.8 mg/kg i.p. once
Description: 4. Test for nephrotoxicity
The compounds of the present invention were dissolved or suspended in 0.5% CMC solution(in water) and were administered intraperitoneally one time to 8-week-old male ICR mice weighing 30±3 g. Each treatment and control groups consisted of six mice.
The administration amount of the test compound was 1.5 times the optimum dose obtained in Table 2, or more. On days 1, 4 and 8 after administration, their blood was collected under ether anesthesia for measurement of blood urea nitrogen concentration (BUN value) and creatinine concentration.
A pair of kidneys were taken and, after immediate weighing, were stored in a 10% neutral buffered formalin solution. The body weight ratio shown in Table 5 is a ratio of the body weight measured on days 1, 4 and 8 from the administration of the compound to the body weight measured on the administration day.

## CCC1O[C@H](CN)[C@@H](CN)O1.O=C1C[O][Pt][O]1 [Example 6, (glycolato-O,O')[(4R,5R)-4,5-bis(aminomethyl)-2-ethyl-1,3-dioxolane]platinum(II)]
ICR mice; female, 25.0 mg/kg i.p.
  Number of dead mice for 7 days: 0/6
  Number of dead mice, 1st day: 0/6
ICR mice; female, 32.5 mg/kg i.p.
  Number of dead mice for 7 days: 1/6
  Number of dead mice, 1st day: 0/6
  Number of dead mice, 3rd day: 1/6
  Lethality: 16.7
ICR mice; female, 42.3 mg/kg i.p.
  Number of dead mice for 7 days: 3/6
  Number of dead mice, 1st day: 0/6
  Number of dead mice, 3rd day: 1/6
  Number of dead mice, 4th day: 1/5
  Number of dead mice, 5th day: 1/4
  Lethality: 50.0
ICR mice; female, 55.0 mg/kg i.p.
  Number of dead mice for 7 days: 5/6
  Number of dead mice, 1st day: 0/6
  Number of dead mice, 3rd day: 4/6
  Number of dead mice, 4th day: 1/2
  Lethality: 83.3
ICR mice; female, 71.4 mg/kg i.p.
  Number of dead mice for 7 days: 6/6
  Number of dead mice, 1st day: 0/6
  Number of dead mice, 3rd day: 4/6
  Number of dead mice, 4th day: 2/2
  Lethality: 100.0
ICR mice; male, 25.0 mg/kg i.p.
  Number of dead mice for 7 days: 0/6
  Number of dead mice, 1st day: 0/6
ICR mice; male, 32.5 mg/kg i.p.
  Number of dead mice for 7 days: 0/6
  Number of dead mice, 1st day: 0/6
  Number of dead mice, 3rd day: 1/6
  Lethality: 16.7
ICR mice; male, 42.3 mg/kg i.p.
  Number of dead mice for 7 days: 4/6
  Number of dead mice, 1st day: 0/6
  Number of dead mice, 3rd day: 1/6
  Number of dead mice, 4th day: 2/5
  Number of dead mice, 5th day: 1/3
  Lethality: 66.7
ICR mice; male, 55.0 mg/kg i.p.
  Number of dead mice for 7 days: 6/6
  Number of dead mice, 1st day: 0/6
  Number of dead mice, 3rd day: 4/6
  Number of dead mice, 4th day: 1/2
  Number of dead mice, 5th day: 1/1
  Lethality: 100.0
ICR mice; male, 71.4 mg/kg i.p.
  Number of dead mice for 7 days: 6/6
  Number of dead mice, 1st day: 0/6
  Number of dead mice, 3rd day: 4/6
  Number of dead mice, 4th day: 2/2
  Lethality: 100.0
[1]
  IC50 (concentration required for 50% inhibition of growth): 0.22 µg/mL
[2]
  Solubility in water: > 50 mg/mL
Murine leukemia L1210; 3.1 mg/kg i.p.
  T/C (%): 113%
Murine leukemia L1210; 6.2 mg/kg i.p.
  T/C (%): 162%
Murine leukemia L1210; 12.5 mg/kg i.p.
  T/C (%): 205%
Murine leukemia L1210; 25 mg/kg i.p.
  T/C (%): toxic
Murine leukemia L1210; 50 mg/kg i.p.
  T/C (%): toxic
Test for nephrotoxicity
  BUN, 1st day: 22.41 mg/100 ml
  BUN, 4th day: 22.67 mg/100 ml
  BUN, 8th day: 30.41 mg/100 ml

## CC(C)C1OC(CN)C(CN)O1.CC1[O][Pt][O]C1=O [Example 19, (L-lactato-O,O')[(4R,5R)-4,5-bis(aminomethyl)-2-isopropyl-1,3-dioxolane]platinum(II)]
ICR mice; female, 41.3 mg/kg i.p.
  Number of dead mice for 7 days: 2/6
  Number of dead mice, 1st day: 0/6
  Number of dead mice, 5th day: 1/6
  Number of dead mice, 6th day: 1/5
  Lethality: 33.3
ICR mice; female, 54.9 mg/kg i.p.
  Number of dead mice for 7 days: 4/6
  Number of dead mice, 1st day: 0/6
  Number of dead mice, 3rd day: 1/6
  Number of dead mice, 4th day: 2/5
  Number of dead mice, 5th day: 1/3
  Lethality: 66.7
ICR mice; female, 71.4 mg/kg i.p.
  Number of dead mice for 7 days: 5/6
  Number of dead mice, 1st day: 0/6
  Number of dead mice, 4th day: 1/6
  Number of dead mice, 5th day: 3/5
  Number of dead mice, 6th day: 1/2
  Lethality: 83.3
ICR mice; female, 91.8 mg/kg i.p.
  Number of dead mice for 7 days: 6/6
  Number of dead mice, 1st day: 0/6
  Number of dead mice, 2nd day: 1/6
  Number of dead mice, 3rd day: 2/5
  Number of dead mice, 4th day: 2/3
  Number of dead mice, 5th day: 1/1
  Lethality: 100.0
ICR mice; male, 41.3 mg/kg i.p.
  Number of dead mice for 7 days: 3/6
  Number of dead mice, 1st day: 0/6
  Number of dead mice, 5th day: 1/6
  Number of dead mice, 6th day: 2/5
  Lethality: 50.0
ICR mice; male, 54.9 mg/kg i.p.
  Number of dead mice for 7 days: 4/6
  Number of dead mice, 1st day: 0/6
  Number of dead mice, 4th day: 1/6
  Number of dead mice, 5th day: 2/5
  Number of dead mice, 6th day: 1/3
  Lethality: 66.7
ICR mice; male, 71.4 mg/kg i.p.
  Number of dead mice for 7 days: 5/6
  Number of dead mice, 1st day: 0/6
  Number of dead mice, 4th day: 1/6
  Number of dead mice, 5th day: 2/5
  Number of dead mice, 6th day: 2/3
  Lethality: 83.7
ICR mice; male, 91.8 mg/kg i.p.
  Number of dead mice for 7 days: 6/6
  Number of dead mice, 1st day: 0/6
  Number of dead mice, 2nd day: 1/6
  Number of dead mice, 3rd day: 4/5
  Number of dead mice, 5th day: 1/1
  Lethality: 100.0
[1]
  IC50 (concentration required for 50% inhibition of growth): 0.29 µg/mL
Murine leukemia L1210; 12.5 mg/kg i.p.
  T/C (%): 208%
Murine leukemia L1210; 25 mg/kg i.p.
  T/C (%): 232%
Murine leukemia L1210; 50 mg/kg i.p.
  T/C (%): toxic
Test for nephrotoxicity
  BUN, 1st day: 38.6 mg/100 ml
  BUN, 4th day: 27.9 mg/100 ml
  BUN, 8th day: 50.7 mg/100 ml

Reference: patent publication US5395947A, “Platinum(II) complex and processes for preparing the same” (Sunkyong Industries, Ltd., priority 1991, dated 1995)
